# Measured values reported in patent publication US11439646B2, “Anti-proliferative agents for treating PAH” (Pfizer Inc., priority 2016, dated 2022).
# Columns and labels:
# rPASMC = test: EdU cell proliferation assay, rPASMC; type: cell-based; conditions: Rattus norvegicus, 5% FBS, N = 6, FIG. 1g, read-out: rPASMC IC50 (nM), inhibition of proliferation
# Method: Alternatively, rather than using BrdU, EdU (5-ethynyl-2′-deoxyuridine) can be used. Cells were first pre-incubated with different concentrations of the CDK inhibitor for 30 minutes, and then 5% FBS was added to stimulate cell proliferation. Cells were maintained for 24 h before the proliferation rate was evaluated using EDU Click-iT EdU Alexa Fluor® 647 HCS Assay (Thermofisher Scientific, USA). EdU was added to the medium 16 h before the quantification of EdU incorporation. Proliferation was quantified by scanning the 96-well plates using automated high content imaging platform equipped with appropriate fluorescence microscopic filters for DAPI (4′,6-Diamidino-2-Phenylindole) or Hoechst stain and Cyanine5 dyes as part of the Click-iT assay. Proliferating EdU positive cells detected at Cyanine5 were quantified and normalized to total cell number per well where the total cell number per cell was identified by DAPI or Hoechst signal. The % effect was then calculated:
# The average (avg) amount (amt) of proliferating cells per concentration of CDK inhibitor with FBS present.
# The minimum amount of proliferation (min amt of prolif'n) is based on cell numbers in the wells where FBS is not added and no CDK inhibitor is present.
# The maximum amount of proliferation (max amt of prolif'n) is based on cell numbers in the wells where FBS is added and no CDK inhibitor is present.
# rat Su5416/Hx PAH model = test: Rat SuHx (Su5416/hypoxia)-induced PAH model (hemodynamics, histomorphometry, IHC); type: in vivo
# Method: SuHx-induced Pulmonary Arterial Hypertension: Sprague-Dawley rats were obtained from Charles River Laboratories (200-300 g; vehicle control, n=5; all other groups, n=10). Rats received Semaxinib dissolved in DMSO on day 0, followed by housing in low (13%) oxygen until day 28. Sildenafil (30 mg/kg/dose; BID), Riociguat (10 mg/kg, QD) or Palbociclib (100 mg/kg; QD) was administered in vehicle (0.5% methylcellulose) from days 7-28. Terminal hemodynamic evaluations and necropsy were conducted on day 28 in a manner similar to the MCT study.
# Hemodynamic measurements Su/Hx study: On day 28, animals were anesthetized via intramuscular injection of ketamine/xylazine (80/10 mg/kg). A Millar catheter was inserted into the pulmonary artery and pulmonary pressure and hemodynamics were measured as described by Stringer et al., (1981) Catheterization of the pulmonary artery in the closed-chest rat. J. Appl. Physiol. 51, 1047-1050. Hemodynamic values were calculated using the NOTOCORD-Hem software (NOTOCORD, Inc., Croissy sur Sienne, France) (CorDynamics).
# Measurement of RV hypertrophy. After collection of the heart at necropsy, the atria and great vessels were removed. The RV was separated from the LV and S. The wet weights of the RV and LV+S were measured to calculate the Fulton Index.
# Tissue preparation. Under anesthesia, the animals were exsanguinated, and the pulmonary circulation flushed with oxygenated (animals from Example 3 [MCT]) or heparizined (animals from Example 4 [Su5416/Hx]) saline. Trachea, lungs, and heart were removed intact from thoracic cavity and placed in ice-cold saline. Right lung lobes were removed, weighed, and immediately flash frozen in liquid nitrogen. A 10 mL syringe filled with fixative (10% NBF) with attached blunt tip needle (20 g) was used to inflate the left lung lobe and the airway was tied off to keep it consistently expanded. The left lung was then immersion fixed in 10% NBF for 48 hrs and then transferred to 70% EtOH for ≤5 days.
# Histomorphometric analysis. Three, 3-5 μm thick, transverse sections of the left lung lobe were used for histomorphometric analysis. Overall disease severity scores were determined by light microscopic evaluation of hematoxylin and eosin (H&E)-stained lung sections by a board-certified veterinary pathologist. Scores ranged from 0 (absent), 1 (minimal), 2 (mild), 3 (moderate), 4 (marked) to 5 (severe) and were assigned according to the approximate percentage of the tissue affected by the tissue changes (inflammatory, degenerative, vascular and/or proliferative) characteristic of the PAH model. Average vessel wall thickness was evaluated using lung sections prepared with a modified Verhoeff-van Gieson elastin stain. Image analysis was performed using random field sampling (Visiopharm newCAST) of 10% of tissue area with observer-assisted identification of intra-acinar and pre-acinar vessels and application of a nucleator probe to measure vessel wall thickness. Fully muscularized intra-acinar vessel density was evaluated in a similar manner using dual αSMA/Ki67 IHC-stained sections and observer-assisted counting of ≥70% muscularized (i.e. SMA^+), transversely sectioned, ≤50 μm external diameter, intra-acinar vessels with an identifiable lumen. Vessel-associated Ki67^+ and pRb^+ cells were counted in αSMA/Ki67 IHC-and CD31/pRb IHC-stained lung sections, respectively, using random field sampling of 10% of tissue area and observer-assisted identification of Ki67^+ or pRb^+ cells associated with the walls (i.e. in the intima or media) of vessels 100 μm external diameter.
# Immunohistochemistry. Dual α-SMA/Ki67 nuclear antigen: All IHC steps were performed on 3 μm-thick, formalin-fixed, paraffin-embedded (FFPE) sections on Leica Bond Rx automated immunohistochemistry stainer. The instrument was programmed to bake and dewax the slides. […]
# rat primary PASMCs = test: BrdU cell proliferation assay, rat primary PASMCs; type: cell-based; conditions: PASMC, 24 h, 5% FBS, average of 3, FIG. 1d, read-out: IC50, proliferation of rat primary PASMCs induced by 5% FBS
# Method: Cell proliferation assay. Primary PASMCs and PAAFs from normal human subjects (ScienCell Research Laboratories, San Diego, Calif., USA) and rat primary PASMCs (Cell Applications, San Diego, Calif., USA) were plated in CellBIND® 96-well plates in Dulbecco's modification of Eagle's medium (DMEM) containing 5% fetal bovine serum (FBS), and serum-starved for 24 h in DMEM containing 0.1% FBS. Cells were first pre-incubated with different concentrations of palbociclib (in triplicates) for 30 minutes, and then 30 ng/ml PDGF-BB or 5% FBS was added to stimulate cell proliferation. Cells were maintained for 48 h before the proliferation rate was evaluated using the Cell Proliferation ELISA BrdU (bromodeoxyuridine) Luminescence Kit (Roche Diagnostics, Mannheim, Germany). BrdU was added to the medium 16 h before the quantification of BrdU incorporation. This procedure was use to generate data as presented in at least FIGS. 1a, 1b, 1c, and 1d. IC50 values were calculated for any given inhibitor by determining the concentration of compound needed to inhibit 50% of the response applied to the system. IC50 values were derived from the four parameter logistic equation which was fit to the compound concentration response data.
# [1] = days 7 to 28, score scale 0-5, FIG. 4g
compound,measurement,setting,value
"CC(=O)c1c(C)c2cnc(Nc3ccc(N4CCNCC4)cn3)nc2n(C2CCCC2)c1=O [Palbociclib, 6-acetyl-8-cyclopentyl-5-methyl-2-{[5-(piperazin-1-yl)pyridin-2yl]amino}pyrido[2,3-d]pyrimidin-7(8H)-one]",IC50,rPASMC,19 nM
same,vessel-associated Ki67+ cells in the pulmonary vasculature (IHC),rat Su5416/Hx PAH model; days 7 to 28,fully reversed
same,vessel-associated pRb+ cells in the pulmonary vasculature (IHC),rat Su5416/Hx PAH model; days 7 to 28,fully reversed
same,Fulton Index,"rat Su5416/Hx PAH model; days 7 to 28, FIG. 4c",significant reduction
same,muscularized intra-acinar vessel density relative to vehicle/Su5416/Hx group,"rat Su5416/Hx PAH model; days 7 to 28, FIG. 4e",0.68 x Su5416/Hx
same,structural changes in the pulmonary vasculature (histomorphometry),"rat Su5416/Hx PAH model; days 7 to 28, FIG. 4f",dramatically improved and in some cases fully normalized
same,heart weight vs vehicle/Su5416/Hx group,"rat Su5416/Hx PAH model; days 7 to 28, FIG. 4j",significant reduction
same,"average vessel wall thickness, intra-acinar and pre-acinar vessels","rat Su5416/Hx PAH model; days 7 to 28, FIG. 4d",significantly reduced
same,"disease severity scores, mean",rat Su5416/Hx PAH model; [1],0.25
same,"disease severity scores, range",rat Su5416/Hx PAH model; [1],0-1.5
same,hemodynamic endpoints / hemodynamic changes,rat Su5416/Hx PAH model; palbociclib 100 mg/kg/day PO QD days 7 to 28,restored hemodynamic endpoints closer to the non-diseased control group
same,hemodynamic endpoints / hemodynamic changes,"rat Su5416/Hx PAH model; palbociclib 100 mg/kg/day PO QD days 7 to 28, listed as palbociclib",near-complete suppression
same,IC50,rat primary PASMCs,27.4 nM
